# Patent US20240307342A1, “Treatment of the adverse cardiovascular effects of cannabinoids” (GreenStone Biosciences, Inc., priority 2022, published 2024)
# Where two headings read alike, the source gives them in different places.
# What was measured:
# hiPSC-ECs [1] = assay: oxidative stress and inflammation readouts in hiPSC-ECs; assay type: cell-based, human; conditions: for expression of proinflammatory cytokines and chemokines / inflammation-related genes / TLR4 expression / expression of ROS-related genes NOX1 and iNOS / mRNA expression of antioxidant-related genes (SOD1, SOD2, CAT, GPX1): Δ9-THC alone; for expression of proinflammatory cytokines and chemokines / inflammation-related genes: genistein or AM6545 = reversal of the Δ9-THC-induced effect; for TLR4 expression / expression of ROS-related genes NOX1 and iNOS / mRNA expression of antioxidant-related genes (SOD1, SOD2, CAT, GPX1): genistein = with Δ9-THC
# [2] = tested on: LDL receptor knock-out mice (B6.129S7-Ldlr^tm1Her/J); assay: atherosclerosis in LDL receptor knock-out mice on high-fat diet; assay type: in vivo, mouse; conditions: for serum lipid profiles or blood pressure: 12 weeks high-fat diet, genistein = cotreatment with Δ9-THC; for CD68-positive area in the aortic root (macrophage recruitment) / plaque size (Oil Red O; aortic root cross-sections and en face thoracic aorta): 12 weeks, genistein = co-treatment with Δ9-THC
# Description: After 12 weeks, the mice were euthanized, and the atherosclerotic lesion area was examined by cross-sections of the aortic root and an en face analysis of the thoracic aorta. […] Macrophage recruitment in the aortic root was analyzed using aortic plaque stained with an anti-CD68 antibody.
# hiPSC-ECs [3] = assay: cytotoxicity in hiPSC-ECs
# [4] = tested on: human endothelial cells (HUVECs and HCAECs); assay: cytotoxicity in human endothelial cells
# ApoE^−/− mice = assay: ApoE−/− partial carotid artery ligation (PCAL) atherosclerosis model; assay type: in vivo, mouse; conditions: for plaque area (Oil Red O), ligated carotid artery: 10 days high-fat diet, genistein = cotreatment with Δ9-THC; for CD68-positive area / F4/80-positive area, ligated carotid artery: genistein = co-treatment with Δ9-THC
# C57BL/6J mice [5] = assay: 30-day C57BL/6J mouse model of Δ9-THC-induced endothelial dysfunction, oxidative stress and inflammation; conditions: for endothelial function (wire myograph, thoracic aorta): 30 days, genistein = Δ9-THC plus genistein; for circulating levels of glutathione / plasma interleukins IL-6, IL-3 and IL-10: Δ9-THC alone; for circulating levels of glutathione: genistein = co-treatment; for plasma interleukins IL-6, IL-3 and IL-10: genistein = cotreatment
# Description: Seven-week-old male C57BL/6J mice were obtained from Jackson Laboratory (Bar Harbor, ME, USA). […] Organs were collected, weighed, and fixed with 4% paraformaldehyde (PFA). The thoracic aortas (TAs) were surgically dissected out and cleaned from the surrounding connective tissue for all groups. The TAs were transferred to ice-cold Krebs'-Henseleit solution and cut into segments of 2 mm. The artery segments were mounted in wire-myograph chambers for isometric tension recordings (DanishMyo Technology [DMT]).The chambers contained Krebs'-Henseleit solution. All chambers were aerated with 95% 02/5% CO2, and the temperature was kept constant at 37° C. to mimic physiological conditions. After a manual stabilization and normalization procedure, the PowerLab4/25-Chart7 acquisition systems (AD Instruments Ltd) was used to record force and convert it into tension. The TA segments were pre-constricted using either […] 5HT serotonin (5HT) or U46619. A cumulative application of acetylcholine ([…]) was performed, and the induced vascular dilatations were measured. Subsequently, concentration-response relationship curves were established for each group of 3 mice. Time-matched dimethylsulfoxide (DMSO) application was performed in a separate chamber as the control for all experiments.
# C57BL/6J mice [6] = assay: neurobehavioral testing (Billy Martin tetrad); assay type: in vivo, mouse
# [7] = tested on: human cardiac fibroblasts-ventricular (NHCF-V); assay: cytotoxicity in cardiac fibroblasts
# hiPSC-ECs [8] = assay: monocyte adhesion to hiPSC-ECs; assay type: cell-based, human; conditions: Δ9-THC alone; genistein = with Δ9-THC
# human endothelial cells = assay: inflammation and antioxidant gene expression in human endothelial cells
# [9] = in vivo; cited from earlier work
# [10] = molecular target: G protein-coupled estrogen receptor (Homo sapiens, UniProt Q99527); conditions: agonist; cited from earlier work
# CB1 [11] = molecular target: T1, CB1 (Homo sapiens, UniProt P21554); assay: in vitro GTPase assay; assay type: biochemical
# CB1 [12] = molecular target: T1, CB1; conditions: reported as an agonist; cited from earlier work
# CB1 [13] = molecular target: T1, CB1; assay: CB1 radioligand binding assay
# human CB2 = human CB2 (Homo sapiens, UniProt P34972); conditions: reported as an agonist; cited from earlier work
# Human subjects = assay: human study in subjects ingesting medicinal cannabinoids; assay type: in vivo; conditions: 1 or 5 mg/Kg/day versus placebo
# [14] = Yang et al. 2012; cited from earlier work
# [15] = not told; cited from earlier work
# [16] = Δ9-THC 20 mg/kg i.p., 60 min post-dosing
# T1 sequence (P21554 whole entry): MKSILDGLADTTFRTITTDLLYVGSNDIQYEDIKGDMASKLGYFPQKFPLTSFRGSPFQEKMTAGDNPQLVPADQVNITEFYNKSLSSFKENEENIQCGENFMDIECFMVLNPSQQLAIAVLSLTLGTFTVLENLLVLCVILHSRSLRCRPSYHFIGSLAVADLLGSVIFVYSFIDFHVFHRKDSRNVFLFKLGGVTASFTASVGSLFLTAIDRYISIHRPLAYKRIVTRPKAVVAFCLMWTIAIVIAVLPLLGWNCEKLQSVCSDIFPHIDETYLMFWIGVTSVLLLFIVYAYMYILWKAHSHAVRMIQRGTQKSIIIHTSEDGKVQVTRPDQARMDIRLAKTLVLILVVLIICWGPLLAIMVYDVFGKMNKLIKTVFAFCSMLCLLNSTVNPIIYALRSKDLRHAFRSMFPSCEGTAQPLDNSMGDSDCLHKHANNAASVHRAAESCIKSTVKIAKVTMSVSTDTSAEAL
# Sequence of human CB2 (P34972 whole entry): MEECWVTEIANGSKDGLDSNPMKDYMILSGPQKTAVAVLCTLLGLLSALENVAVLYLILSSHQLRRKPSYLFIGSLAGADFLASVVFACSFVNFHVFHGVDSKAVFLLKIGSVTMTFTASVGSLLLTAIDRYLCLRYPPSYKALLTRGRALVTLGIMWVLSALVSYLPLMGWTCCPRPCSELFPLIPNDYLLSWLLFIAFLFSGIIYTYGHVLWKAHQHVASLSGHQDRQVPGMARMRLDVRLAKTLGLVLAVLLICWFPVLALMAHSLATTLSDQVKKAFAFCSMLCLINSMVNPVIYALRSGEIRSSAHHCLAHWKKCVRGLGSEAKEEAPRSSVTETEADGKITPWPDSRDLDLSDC
# Sequence of G protein-coupled estrogen receptor (Q99527 whole entry): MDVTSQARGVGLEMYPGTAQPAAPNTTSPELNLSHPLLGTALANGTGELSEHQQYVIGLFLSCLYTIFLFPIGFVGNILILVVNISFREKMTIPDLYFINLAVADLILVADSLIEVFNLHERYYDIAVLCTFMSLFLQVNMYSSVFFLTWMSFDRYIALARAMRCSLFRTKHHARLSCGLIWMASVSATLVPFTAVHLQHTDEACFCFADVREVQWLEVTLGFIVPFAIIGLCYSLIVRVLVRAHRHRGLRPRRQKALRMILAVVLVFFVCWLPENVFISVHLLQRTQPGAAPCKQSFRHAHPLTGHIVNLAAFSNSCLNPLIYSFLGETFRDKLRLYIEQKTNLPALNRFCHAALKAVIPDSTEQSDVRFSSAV
SMILES,expression of proinflammatory cytokines and chemokines / inflammation-related genes (hiPSC-ECs [1]),TLR4 expression (hiPSC-ECs [1]),expression of ROS-related genes NOX1 and iNOS (hiPSC-ECs [1]),"mRNA expression of antioxidant-related genes (SOD1, SOD2, CAT, GPX1) (hiPSC-ECs [1])",serum lipid profiles or blood pressure [2],CD68-positive area in the aortic root (macrophage recruitment) [2],plaque size (Oil Red O; aortic root cross-sections and en face thoracic aorta) [2],"plaque area (Oil Red O), ligated carotid artery (ApoE^−/− mice)",CD68-positive area (ApoE^−/− mice),"F4/80-positive area, ligated carotid artery (ApoE^−/− mice)","endothelial function (wire myograph, thoracic aorta) (C57BL/6J mice [5])",circulating levels of glutathione (C57BL/6J mice [5]),"plasma interleukins IL-6, IL-3 and IL-10 (C57BL/6J mice [5])",monocyte adhesion to hiPSC-ECs (hiPSC-ECs [8]),mRNA expressions of inflammation induced by Δ9-THC in mouse thoracic artery tissues (C57BL/6J mice [5]; with Δ9-THC),further results
Cc1c(C(=O)NN2CCS(=O)(=O)CC2)nn(-c2ccc(Cl)cc2Cl)c1-c1ccc(C#CCCC#N)cc1 [AM6545],reversed,–,–,–,–,–,–,–,–,–,–,–,–,–,–,–
"CCCCCc1cc(O)c2c(c1)OC(C)(C)[C@@H]1CCC(C)=C[C@@H]21 [Δ^9-THC, (6aR,10aR)-6,6,9-trimethyl-3-pentyl-6a,7,8,10a-tetrahydro-6H-benzo[c]chromen-1-ol]",increased,induced,upregulated,decreased,Neither Δ^9-THC nor cotreatment with Δ^9-THC and genistein affected,significantly increased,significantly increased plaque size,increased,significantly increased,significantly increased,induced endothelial dysfunction,decreased,elevated,increased adhesion,–,"I kappa B (IκB) (hiPSC-ECs [1]): inhibited; TNFα concentration in the cell culture medium (hiPSC-ECs [1]): increased; hydrogen peroxide (H2O2) levels (hiPSC-ECs [1]; immunofluorescence staining): increased; duration of Δ9-THC-induced expression of proinflammatory cytokines and chemokines after the initial exposure (hiPSC-ECs [1]; Δ9-THC 48 hours, then wash-out, no genistein): 8 to 10 days; cytotoxicity (hiPSC-ECs [3]): induced cytotoxicity; cytotoxicity [4]: induced cytotoxicity; plasma concentration of Δ9-THC (C57BL/6J mice [5]; intraperitoneal injection, LC-MS): ~100 ng/mL; analgesia (hot plate 55° C.) (C57BL/6J mice [6]; Δ9-THC 20 mg/kg i.p.): analgesia; hypothermia (rectal body temperature) (C57BL/6J mice [6]; [16]): hypothermia; mobility (open field activity chamber) (C57BL/6J mice [6]; [16]): decreased mobility; sedation (bar test) (C57BL/6J mice [6]; [16]): sedation; cytotoxicity [7]: without any adverse effect; antioxidant-related gene expression (human endothelial cells): reduced; expression of inflammation-related genes (human endothelial cells): induced"
"O=c1c(-c2ccc(O)cc2)coc2cc(O)cc(O)c12 [genistein, 5,7-dihydroxy-3-(4-hydroxyphenyl)-4H-1-benzopyran-4-one]",reversed,disrupted,salutatory effect,ameliorated,Neither Δ^9-THC nor cotreatment with Δ^9-THC and genistein affected,rescued,ameliorated plaque size,ameliorated plaque size,reduced,decreased,mitigated,ameliorated,significantly reduced,reversed,ameliorated,"bioavailability [9]: low bioavailability; affinity [10]: 133 nM; mode of action against CB1 (CB1 [11]): neutral antagonist; NF-κB phosphorylation (hiPSC-ECs [1]; genistein with Δ9-THC): attenuated; IC50 (CB1 [12]): 150 nM; IC50 (CB1 [13]): 150 nM; IC50 (human CB2): > 50000 nM; Ki (human CB2): > 50000 nM; incidence of adverse cardiovascular effects of cannabinoid ingestion (Human subjects): dose-related lower incidence; NF-κB phosphorylation and SOD expression in mouse serum (C57BL/6J mice [5]; with Δ9-THC): attenuated; oxidative stress-related gene expression (C57BL/6J mice [5]; with Δ9-THC): rescued; Δ9-THC neurobehavioral effects (C57BL/6J mice [6]; genistein 50 mg/kg p.o. in co-treatment with Δ9-THC 20 mg/kg i.p.): could not attenuate; tetrad effects (C57BL/6J mice [6]; genistein alone, 50 mg/kg p.o.): did not affect tetrad effects; blood-brain barrier (BBB) penetration [14]: poor blood-brain barrier (BBB) penetration; cell wall permeability [15]: high cell wall permeability"
Cc1c(C(=O)NN2CCCCC2)nn(-c2ccc(Cl)cc2Cl)c1-c1ccc(Cl)cc1 [rimonabant],–,–,–,–,–,–,–,–,–,–,–,–,–,–,ameliorated,–
